Test results published in patent US6656695B2, “Biomap characterization of biologically active agents” (Bioseek, Inc., priority 2000, dated 2003).

Columns and labels:
HUVEC cells [1] = assay: optimized inflammatory assay combination: HUVEC treated with TNF-α+IFN-γ+IL-1, readout parameters by cell-based ELISA (biomap); parameters: species or system human; details: for activity (alteration of the biomap) in the optimized assay combination: HUVEC, TNF-α+IFN-γ+IL-1, 24 hours, 10 μM NHGA, 200 μM PDTC, 9 μM PD098059, PPM-18 2 μM, AG126 25 μM, p55-Fc 50 ng/ml; for cellular toxicity: either drug alone at higher concentrations (2-fold) than PPM-18 2 μM / AG126 25 μM
Procedure: Primary human umbilical vein endothelial cells (HUVEC) are used. Other cells that may replace HUVEC in the screen include primary microvascular endothelial cells, aortic or arteriolar endothelial cells or endothelial cell lines such as EAhy926 or E6-[…]-5-2G cells or human telomerase reverse transcriptase-expressing endothelial cells (Simmons, J. Immunol., 148:267, 1992; Rhim, Carcinogenesis 19:673, 1998; Yang, J. Biol. Chem. 274:26141, 1999). 2×10^4 cells/ml are cultured to confluence in EGM-2 (Clonetics). Other media that may replace EGM-2 include EGM (Clonetics) and Ham's F12K medium supplemented with 0.1 mg/ml heparin and 0.03-0.05 mg/ml endothelial cell growth supplement (ECGS) and 10% FBS, or medium M199 (Life Technologies, Inc.) containing 20% fetal bovine serum and 2 ng/ml basic fibroblast growth factor (Jaffe, J. Clin. Invest. 52:2745, 1973; Hoshi, PNAS 81:6413, 1984). The disease environment present in chronic inflammatory diseases, such as Crohn's disease, differs from the normal condition by increased presence of multiple biologically active agents including IL-1, TNF-α, and IFN-γ (Woywodt, 1994; Kakazu, 1999). Other biologically active agents that may be increased in chronic inflammatory disease environments include IL-4, IL-6, IL-8, IL-12, IL-13, IL-18, TGFbeta, and histamine, as well as activated leukocytes and their products (Daig, 1996, Gut 38:216; Woywodt, 1994, Eur. cytokine Netw. 5:387; Kakazu, 1999 Am J. Gastroenterol. 94:2149; Pizarro, 1999, J. Immunol. 162:6829; Monteleone, 1999, J. Immunol. 163:143; […] Enteral Nutr 23:S20; Beck, 1999, […]. Bowel Dis. 5:44). Optimized assay combinations will contain at least two, and preferably three, four or more of these biologically active agents. […] After 24 hours, cultures are washed and evaluated for the presence of the parameters ICAM-1 (1), VCAM-1 (2), E-selectin (3), IL-8 (4), CD31 (5), HLA-DR (6) and MIG (7) by cell-based ELISA as described (Melrose, J. Immunol. 161:2457, 1998). For this, plates are blocked with 1% Blotto for 1 hr, and treated with primary antibodies (obtained from Pharmingen and Becton Dickinson) at 1 ng/ml for 2 hr. After washing, secondary peroxidase-conjugated anti-mouse IgG antibody (Promega) at 1:2500 is applied for 45 min. After washing, TMB substrate (Kierkegaard & Perry) is added and color developed. Development is stopped by addition of H2SO4 and the absorbance at 450 nm (subtracting the background absorbance at 600 nm) is read with a Molecular Dynamics plate reader. The relative expression levels of each parameter are indicated by the OD at 450 nm shown along the y-axis. The mean +/- SD from triplicate samples is shown. […] Confluent cultures of HUVEC cells are treated with TNF-α (5 ng/ml)+IFN-γ (100 ng/ml)+IL-1 (1 ng/ml) in the presence or absence of neutralizing anti-TNF-α or control antibody (Goat anti-IgG). […] In FIG. 3A, the relative expression of each parameter is shown along the y-axis as average value of the OD measured at 450 nm of triplicate samples. The mean +/- SD from triplicate samples are shown. * indicates p<0.05 comparing results obtained with anti-TNF-α to the control. […] A color-coded representation of the biomaps developed from the data is shown. […] J. Physiol. 273(2 Pt 2):[…], 1997), the corticosteroids dexamethasone and prednisolone, echinacea, AA861 (Lee, J. Immunol. 158, 3401, 1997), apigenin ([…], Am. J. Pathol. 147:278, 1995), nordihydroguaiaretic acid (NHGA) (Brennen, Biochem. […] J. Immunol. 27:2172, 1997), pyrrolidine dithiocarbamate (PDTC) (Boyle, Circulation, 98, (19 Suppl):11282, 1998), PPM-18 (Yu, Biochem. […] Biol. Chem. 273:18165, 1998), AG126 (Novogrodsky, Science 264, 1319, 1994), and neutralizing anti-TNF-α antibody. Color-coded representations of the resulting biomaps are shown. Confluent cultures of HUVEC cells are treated with TNF-α (5 ng/ml)+IFN-γ (100 ng/ml)+IL-1 (1 ng/ml) in the presence or absence of agents or buffers at the concentrations indicated in Table 1. […]

HUVEC cells [2] = assay: multiplex (secondary) assay combinations: HUVEC with single pathway activators or media, biomaps by cell-based ELISA; parameters: species or system human; details: TNF-α, IFN-γ, IL-1 alone or combined; 20 μM AA861, 10 μM NHGA; FIG. 5
Procedure: Confluent cultures of HUVEC cells are treated with TNF-α (5 ng/ml), IFN-γ (100 ng/ml), IL-1 (20 ng/ml), the combination of TNF-α+IFN-γ+IL-1, or media (no cytokine) in the presence or absence of neutralizing anti-TNF-α, 20 μM AA861 or 10 μM NHGA. After 24 hours, cultures are washed and evaluated for the cell surface expression of ICAM-1 (1), VCAM-1 (2), E-selectin (3), IL-8 (4), and MIG (5) by cell-based ELISA performed as described in FIG. 1. A color-coded representation of the resulting biomaps derived from the data is shown in FIG. 5, coded as described in FIG. 2B.
Confirmation is performed by evaluating the test agent in assay combinations that include both physiologic and alternative pathway activators. […] After 24 hours, cultures are washed and evaluated for the cell surface expression of ICAM-1 (1), VCAM-1 (2), E-selectin (3), CD31 (4), and MIG (5) by cell-based ELISA performed as described in FIG. 1. […]
In FIG. 7B, confluent cultures of HUVEC cells are treated with TNF-α (5 ng/ml), IFN-γ (100 ng/ml), IL-1 (20 ng/ml), the combination of TNF-α+IFN-γ+IL-1, or media in the presence or absence of p55-Fc. After 24 hours, cultures are washed and evaluated for the cell surface expression of ICAM-1 (1), VCAM-1 (2), E-selectin (3), IL-8 (4), and MIG (5) by cell-based ELISA performed as described in FIG. 1. […]

Q: How did the “activity (alteration of the biomap) in the optimized assay combination” value (“activity (alteration of the biomap)” for short) (HUVEC cells [1]) turn out when `N#CC(C#N)=Cc1ccc([N+](=O)[O-])c(O)c1` [AG126] was run?
A: active compounds

Q: What about the cellular toxicity (HUVEC cells [1]) of the same molecule?
A: cellular toxicity

Q: For `CC(Cc1ccc(O)c(O)c1)C(C)Cc1ccc(O)c(O)c1` (centres unmarked) [NHGA, nordihydroguaiaretic acid], which “cytokine signaling pathways targeted” value (HUVEC cells [2]) is on record?
A: target multiple cytokine signaling pathways

Q: And the “activity (alteration of the biomap)” value (HUVEC cells [1])?
A: altered biomaps

Q: Which “activity (alteration of the biomap)” value (HUVEC cells [1]) does the source give for `COc1cccc(-c2cc(=O)c3ccccc3o2)c1N` [PD098059] here?
A: altered biomaps

Q: How did the “activity (alteration of the biomap)” value (HUVEC cells [1]) turn out when `S=C(S)N1CCCC1` [PDTC, pyrrolidine dithiocarbamate] was run?
A: altered biomaps

Q: Which “activity (alteration of the biomap)” value (HUVEC cells [1]) does the source give for `O=C(NC1=CC(=O)c2ccccc2C1=O)c1ccccc1` [PPM-18] here?
A: active compounds

Q: And the cellular toxicity (HUVEC cells [1])?
A: cellular toxicity
